Data reported in PubChem BioAssay (NCI).
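Growth conditions: 96-well plates. Treatment: test compound, 48 hours, 5 concentrations. Analysis: linear interpolation between bracketing concentrations; unreached endpoints set to highest concentration. TGI: total growth inhibition.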

How the values were obtained:
Assay in all cases: inhibition of tumour cell growth, NCI panel, 48 h
SF-295 CNS = system: SF-295 CNS
MDA-MB-231 breast = system: MDA-MB-231 breast
HT29 colon = system: HT29 colon
SK-MEL-2 melanoma = system: SK-MEL-2 melanoma
MDA-MB-435 = system: MDA-MB-435
SNB-75 CNS = system: SNB-75 CNS
786-0 renal = system: 786-0 renal
SW-620 colon = system: SW-620 colon
SNB-19 CNS = system: SNB-19 CNS
M14 melanoma = system: M14 melanoma
OVCAR-4 ovarian = system: OVCAR-4 ovarian
HCT-116 colon = system: HCT-116 colon
DU-145 prostate = system: DU-145 prostate
ACHN renal = system: ACHN renal
NCI-H522 lung = system: NCI-H522 lung
NCI-H460 lung = system: NCI-H460 lung
OVCAR-5 ovarian = system: OVCAR-5 ovarian
LOX IMVI melanoma = system: LOX IMVI melanoma
HOP-92 NSCLC = system: HOP-92 NSCLC
HCC-2998 colon = system: HCC-2998 colon

SMILES | TGI (SF-295 CNS) | TGI (MDA-MB-231 breast) | TGI (HT29 colon) | TGI (SK-MEL-2 melanoma) | TGI (MDA-MB-435) | TGI (SNB-75 CNS) | TGI (786-0 renal) | TGI (SW-620 colon) | TGI (SNB-19 CNS) | TGI (M14 melanoma) | TGI (OVCAR-4 ovarian) | TGI (HCT-116 colon) | TGI (DU-145 prostate) | TGI (ACHN renal) | TGI (NCI-H522 lung) | TGI (NCI-H460 lung) | TGI (OVCAR-5 ovarian) | TGI (LOX IMVI melanoma) | TGI (HOP-92 NSCLC) | TGI (HCC-2998 colon)
c1ccc2c(c1)NCCC(=NC1CCCCC1)N2 | > 100 µM | > 100 µM | > 100 µM | > 100 µM | > 100 µM | > 100 µM | > 100 µM | > 100 µM | > 100 µM | > 100 µM | > 100 µM | > 100 µM | > 100 µM | > 100 µM | > 100 µM | > 100 µM | > 100 µM | – | – | –
Cc1ccc2c(=O)cc(Cc3cccs3)[nH]c2n1 | > 100 µM | > 100 µM | > 100 µM | > 100 µM | > 100 µM | > 100 µM | > 100 µM | > 100 µM | > 100 µM | > 100 µM | > 100 µM | > 100 µM | > 100 µM | – | > 100 µM | – | > 100 µM | > 100 µM | – | –
CCN1CCCC(C#N)(c2ccccc2)CC1 (stereo not given) | > 100 µM | – | > 100 µM | – | – | > 100 µM | > 100 µM | > 100 µM | > 100 µM | > 100 µM | > 100 µM | > 100 µM | > 100 µM | > 100 µM | – | > 100 µM | > 100 µM | – | > 100 µM | > 100 µM
COc1cc(=O)c2c(O)c3c(O)oc(C)cc3c(OC)c2c1 | 72.7 µM | 62.5 µM | 40.7 µM | 98.9 µM | 32.7 µM | – | 86.7 µM | > 100 µM | > 100 µM | 88.5 µM | 27.9 µM | 38.4 µM | > 100 µM | 63 µM | > 100 µM | > 100 µM | 86.6 µM | – | 42.4 µM | –
CCN(CC)Cc1cc(Nc2c3ccccc3nc3c2[nH]c2ccccc23)cc(CN(CC)CC)c1O | 2.88 µM | 2.62 µM | 5.1 µM | 3.24 µM | 2.04 µM | 2.97 µM | 0.974 µM | 2.47 µM | 5.75 µM | 1.33 µM | 1.81 µM | 3.33 µM | 7.99 µM | 3.48 µM | 2.47 µM | 2.01 µM | 9.21 µM | – | 3.86 µM | 2.27 µM
CC1=NN(C(=O)c2ccccc2O)C(=O)/C1=C/c1cccc(O)c1 | > 100 µM | > 100 µM | > 100 µM | > 48.4 µM | – | > 100 µM | > 100 µM | > 100 µM | > 100 µM | 37 µM | > 100 µM | > 100 µM | > 100 µM | > 100 µM | > 30.7 µM | > 100 µM | > 100 µM | > 80.5 µM | > 100 µM | > 100 µM
CCOc1ccc(N/C(=C(/C(Cl)=C(/Cl)Nc2ccccc2)[N+](=O)[O-])n2nnc3ccccc32)cc1 | > 100 µM | 58.1 µM | – | 73.7 µM | 87.5 µM | > 100 µM | 62.3 µM | – | > 100 µM | 34 µM | > 100 µM | 56 µM | > 100 µM | > 100 µM | 39.5 µM | > 100 µM | > 100 µM | – | 40.6 µM | > 100 µM
CCc1c(CN)c(CC)c(CNC2=NCCN2)c(CC)c1CNC1=NCCN1 | > 100 µM | – | > 100 µM | > 100 µM | > 100 µM | > 100 µM | > 100 µM | > 100 µM | > 100 µM | > 100 µM | > 100 µM | > 100 µM | > 100 µM | > 100 µM | > 100 µM | > 100 µM | > 100 µM | – | > 100 µM | > 100 µM
CCOP(=O)(C=C=C1CCC2[C@@H]3CCc4cc(OC)ccc4C3CC[C@]12C)OCC (stereo not given in full) | 19.7 µM | – | 17.7 µM | 26.5 µM | 25.5 µM | 25.5 µM | 25.3 µM | 29.2 µM | 28.3 µM | 24.3 µM | 21.3 µM | 19.2 µM | 30 µM | 21.9 µM | 18.9 µM | 27.6 µM | 31.4 µM | 24.8 µM | 22.5 µM | 25.2 µM
Cc1c(C)c(C)c(CC2(C)CSC2)c(CC2(C)CSC2)c1C | > 100 µM | > 100 µM | > 100 µM | > 100 µM | – | > 100 µM | > 100 µM | > 100 µM | > 100 µM | > 100 µM | – | > 100 µM | > 100 µM | > 100 µM | > 100 µM | > 100 µM | > 100 µM | > 100 µM | > 100 µM | –
CCOC(=O)CCC(NC(=O)Cc1ccc(Nc2nc3ccccc3nc2-c2cccs2)cc1)C(=O)OCC (stereo not given) | > 100 µM | > 100 µM | > 100 µM | > 100 µM | > 100 µM | > 100 µM | > 100 µM | > 100 µM | > 100 µM | > 100 µM | > 100 µM | > 100 µM | > 100 µM | > 100 µM | > 100 µM | > 100 µM | > 100 µM | – | – | > 100 µM
Clc1ccc(Nc2nnc(CCCCCCCCc3nnc(Nc4ccc(Cl)cc4)o3)o2)cc1 | > 100 µM | > 100 µM | > 100 µM | > 100 µM | > 100 µM | > 100 µM | 60.1 µM | > 100 µM | > 100 µM | > 100 µM | > 100 µM | 34.5 µM | > 100 µM | > 100 µM | 73.1 µM | > 100 µM | > 100 µM | – | 98.7 µM | > 100 µM
O=P1(Oc2ccccc2)N=P(c2ccccc2)(c2ccccc2)C=C(c2ccc(Cl)cc2)N1 (stereo not given) | 19.8 µM | 32.1 µM | 15.5 µM | 27.6 µM | 17.1 µM | – | 28 µM | 29.5 µM | 29.7 µM | 21.1 µM | – | 30.5 µM | 26.9 µM | 25.6 µM | 24.2 µM | 18.5 µM | 28.2 µM | – | 25.4 µM | –
Cc1ccc(/C=N/n2c(Cc3ccccc3)n[nH]c2=O)cc1 | > 100 µM | > 100 µM | > 100 µM | – | – | > 100 µM | > 100 µM | > 100 µM | > 100 µM | > 100 µM | > 100 µM | > 100 µM | > 100 µM | > 100 µM | > 100 µM | > 100 µM | > 100 µM | > 100 µM | 83.4 µM | > 100 µM
Clc1c(Cl)c(Cl)c2c(nnn2C2CCCO2)c1Cl (stereo not given) | > 100 µM | > 100 µM | > 100 µM | 73.3 µM | > 100 µM | 40.3 µM | > 100 µM | – | – | > 100 µM | 54.5 µM | > 100 µM | > 100 µM | – | 66.6 µM | 41.8 µM | > 100 µM | – | – | > 100 µM
O=C(O)CSCc1cc2c(O)c(c1)Cc1cc(CSCC(=O)O)cc(c1O)Cc1cc(CSCC(=O)O)cc(c1O)Cc1cc(CSCC(=O)O)cc(c1O)C2 | > 100 µM | – | > 100 µM | > 100 µM | > 100 µM | – | > 100 µM | > 100 µM | > 100 µM | > 100 µM | > 100 µM | > 100 µM | > 100 µM | > 100 µM | > 100 µM | > 100 µM | > 100 µM | > 100 µM | > 100 µM | > 100 µM
O=Cc1c2n(c3ccccc13)N[C@@](Cc1ccc(O)cc1)(C(=O)O)C2 | > 100 µM | > 100 µM | > 100 µM | > 100 µM | > 100 µM | – | > 100 µM | > 100 µM | > 100 µM | > 100 µM | > 100 µM | > 100 µM | > 100 µM | > 100 µM | > 100 µM | – | > 100 µM | > 100 µM | > 100 µM | –
Oc1ccc2c(c1)CCc1c-2n(CCN2CCOCC2)c2ccc(O)cc12 | > 100 µM | > 100 µM | – | 70.9 µM | > 100 µM | 78.1 µM | > 100 µM | > 100 µM | > 100 µM | > 100 µM | – | > 100 µM | > 100 µM | 53 µM | – | > 100 µM | > 100 µM | > 100 µM | – | –
O=C1c2cccnc2S(=O)(=O)N1c1ccc(Oc2ccccc2)cc1 | > 100 µM | > 100 µM | > 100 µM | > 100 µM | > 100 µM | > 100 µM | > 100 µM | > 100 µM | > 100 µM | > 100 µM | > 100 µM | > 100 µM | > 100 µM | > 100 µM | > 100 µM | > 100 µM | > 100 µM | – | > 100 µM | > 100 µM
Nc1ccc2nc3c(nc2c1)C(=O)c1ccccc1-3 | > 100 µM | > 100 µM | > 100 µM | – | > 100 µM | > 100 µM | > 100 µM | > 100 µM | > 100 µM | > 100 µM | > 100 µM | > 100 µM | > 100 µM | > 100 µM | > 100 µM | > 100 µM | > 100 µM | – | > 100 µM | > 100 µM
N#C[C@H](C(=O)c1ccccc1F)c1nc2ccccc2s1 | 77.2 µM | > 100 µM | > 100 µM | 51.1 µM | > 100 µM | > 100 µM | > 100 µM | > 100 µM | > 100 µM | > 100 µM | – | 61.3 µM | > 100 µM | > 100 µM | 69.3 µM | 94.2 µM | > 100 µM | > 100 µM | > 100 µM | –
